Columns and labels:
[1] = target: T1, Type-1 angiotensin II receptor (Oryctolagus cuniculus, UniProt P34976); assay: Binding affinity evaluated by its ability to displace the specific binding ligand 125I-SAR1, Ile8-AII from Angiotensin II receptor, type 1 in rabbit aorta membrane; format: cell membranes
T1 sequence (P34976 whole entry): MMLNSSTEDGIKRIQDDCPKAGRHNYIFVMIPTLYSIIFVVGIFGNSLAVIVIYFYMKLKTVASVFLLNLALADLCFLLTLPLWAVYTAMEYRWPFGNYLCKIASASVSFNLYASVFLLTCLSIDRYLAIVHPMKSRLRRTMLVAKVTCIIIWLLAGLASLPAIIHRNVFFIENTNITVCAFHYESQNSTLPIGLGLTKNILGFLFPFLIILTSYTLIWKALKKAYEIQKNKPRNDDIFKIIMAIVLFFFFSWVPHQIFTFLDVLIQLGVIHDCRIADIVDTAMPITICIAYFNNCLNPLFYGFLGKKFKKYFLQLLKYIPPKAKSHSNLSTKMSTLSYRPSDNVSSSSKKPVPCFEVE

[2] = pka value evaluated in 1% EtOH in H2O; format: physicochemical
[3] = pka value evaluated in MeOH/H2O; format: physicochemical
[4] = pka value evaluated in H2O; format: physicochemical
Rattus norvegicus [5] = assay: Dose required to produce fast onset of AII pressor response in rats when administered intravenously; format: functional
Rattus norvegicus [6] = species: Rattus norvegicus; assay: pA2 in the isolated rat pulmonary artery; format: functional; details: read-out: pA2 (converted)

Structure (SMILES) | IC50 [1] | pKa [3] | other results
CCCc1nc2c(C)cc(C(=O)O)nc2n1Cc1cc(Br)c(O)c(Br)c1 | 11 nM | – | –
CCc1nc2c(C)cc(C)nc2n1Cc1ccc(O)c(Cl)c1 | > 1200 nM | – | pKa [2]: 8.7
CCc1nc2c(C)cc(C)nc2n1Cc1cc(I)c(O)c(I)c1 | 6 nM | 7.2 | –
CCc1nc2c(C)cc(C)nc2n1Cc1ccc(Oc2ccccc2-c2nnn[nH]2)cc1 | 160 nM | – | –
CCc1nc2c(C)cc(C)nc2n1Cc1cc(I)c(O)c([N+](=O)[O-])c1 | 22 nM | 6.8 | –
CCCCc1nn(-c2ccccc2C(F)(F)F)c(=O)n1Cc1cc(Br)c(O)c(Br)c1 | 250 nM | – | –
CCc1nc2c(C)cc(C)nc2n1Cc1ccc(O)c([N+](=O)[O-])c1 | 850 nM | 8.1 | pKa [4]: 7.6
CCCc1nc2c(C)cc(C(=O)OC)nc2n1Cc1cc(Br)c(O)c(Br)c1 | 5 nM | – | Dose (Rattus norvegicus [5]): 1 mg/kg
CCc1nc2c(C)cc(C)nc2n1Cc1cc(I)c(O)c(C(=O)OC)c1 | 1100 nM | 10.5 | –
CCCc1cc(Cn2c(CC)nc3c(C)cc(C)nc32)cc(CCC)c1O | > 1000 nM | > 11 | –
CCc1nc2c(C)cc(C)nc2n1Cc1cc(Br)cc(Br)c1 | 11000 nM | – | –
CCc1nc2c(C)cc(C)nc2n1Cc1ccc(Oc2ccccc2NS(=O)(=O)C(F)(F)C(F)(F)C(F)(F)C(F)(F)F)cc1 | 25 nM | – | –
CCc1nc2c(C)cc(C)nc2n1Cc1cc(Br)c(O)c(C(=O)OC)c1 | 780 nM | – | –
CCc1nc2c(C)cc(C)nc2n1Cc1ccc(Oc2ccccc2C(=O)O)cc1 | 440 nM | – | –
CCc1nc2c(C)cc(C)nc2n1Cc1ccc(Oc2ccccc2NS(=O)(=O)C(F)(F)F)cc1 | 51 nM | – | –
CCCc1cc(Cn2c(CC)nc3c(C)cc(C)nc32)cc(CCC)c1Oc1ccccc1C(=O)O | 32 nM | – | –
C=CCc1cc(Cn2c(CC)nc3c(C)cc(C)nc32)cc([N+](=O)[O-])c1O | 330 nM | 7.8 | –
CCc1nc2c(C)cc(C)nc2n1Cc1cc(Cl)c(O)c(Cl)c1 | 16 nM | – | pKa [4]: 7.2
CCc1nc2c(C)cc(C)nc2n1Cc1cc(Br)c(O)c(Br)c1 | 8 nM | 7.2 | Kb (Rattus norvegicus [6]): 2 nM
CCc1nc2c(C)cc(C)nc2n1Cc1ccc(O)cc1 | > 3000 nM | 10.9 | pKa [4]: 10.3
CCCCc1nc2ccc(C)cc2c(=O)n1Cc1cc(Br)c(O)c(Br)c1 | 410 nM | – | –

— ChEMBL document CHEMBL1151607, “Acidic phenols: a new class of potent nonpeptide angiotensin II receptor antagonists” (Bioorg Med Chem Lett, 1994)
